# Measured values published in patent US20030108574A1, “Carbohydrate-based whole cell cancer vaccines” (priority 2001, published 2003).
# Several values for one entry are separate records, joined by “and”; a condition that tells them apart may be missing. Equal entries are not always repeated.
# What was measured:
# polysialic acid = settings: RMA-S tumor-bearing mice, CY day 7, vaccine day 8
# Method: ELISA. Total IgG antibody was measured by ELISA. Each well of ELISA plate was coated with HAS conjugates (0.5 μl/50 μl PBS/well) of NAc or NPr polysialic acids (11 kDa fractions), and blocked with 150 μl of 10%FBS in PBS. The plates were then washed three times with PBS and Tween20 (0.05%). Sera were added into well of plate after serial dilutions. The plates were kept for 1 hour at room temperature. After washing, anti-mouse IgG conjugates with horseradish peroxide (50 μl) were added into each well of plate and incubated for 1 hour at room temperature. Plates were further washed five times with PBS and Tween20 (0.05%) and 100 Ill of substrate 2,2′-azino-bis-(3-ethylbenthiazoline-6-sulfonic acid)(1 mg/ml) in 44 mM Na2HPO4, 20 mM citric acid and 0.3% H2O2. The plates were read at 405 nm with reference wavelength of 490 nm.
# (§2) Vaccine preparation and administration. RMA-S cells were incubated with ManNPr (1 mg/ml) for 48 hour, and after washing with PBS, they were suspended in PBS and killed by heating at 70° C. for 10 min. Mice were injected subcutaneously with 2×10^6 RMA-S cells at the area of rear flank to develop a solid tumor. […] Whole cell vaccines (2×10^6 cells) were inoculated at day 8 and tumor growth was monitored routinely.
# RMA-S tumor = assay: Spleen metastasis by limiting dilution of spleen cells
# Method: as §2
# Limiting dilution-Cell suspension of the mouse spleen was prepared in RPMI 1640 medium. One fifth of each spleen suspension was used to initiate a 2-fold serial dilution with complete RPMI 1640 medium and the cells were cultured over 20 days. Cancer cells of metastasis of spleen were examined under the microscope.
# One fifth of cell suspension of spleen was used to initiate a serial 2-fold dilution. Cells were cultured over 20 days and tumor cells from the spleen were examined under the microscope. The negative score was the cell culture that had no tumor cells in comparison of the positive score with tumor cells in cell culture.
# P815 cells = assay: Flow cytometry of polysialic acid and NPr polysialic acid expression on P815 cells incubated with ManNPr; format: cell-based, mouse; settings: 1 mg/ml ManNPr
# Method: (§1) Flow Cytometry. For flow cytometry, cells were incubated with MAbs 13D9 or 735 in 50 μl of RPMI+1% FBS on ice for 30 min. The cells were then washed and incubated with FITC-labelled secondary antibodies. After 30 min the cells were washed and fixed in 1% formaldehyde and assayed on a flow cytometer (Coulter Incorporation, Miami, Fla.).
# To identify a cell line allogeneic to RMA-S, but which was also able to express polysialic acid, a number of allogeneic tumor cell lines were screened by flow cytometric analysis using MAb 735 (data not shown). […] FIG. 1B illustrates NPr polysialic acid expression on the surface of tumor cells for P815 cells incubated with 1 mg/ml ManNPr in cell culture. The cells were harvested at intervals and the expression of polysialic acid and its NPr analog were measured as described above. P815 cells were treated with ManNPr for different time periods, and after washing, they were stained with either MAb 735 or MAb 13D9. […] Obviously the transformation of polysialic acid on the surface of P815 cells follows a different pattern from RMA-S RMA and RBL-2H3 (9) cell lines that already have higher initial levels of expression of polysialic acid. Heat-killed P815 cells, pretreated with ManNPr, were then used as the allogeneic vaccine.
# RMA-S cells = assay: Flow cytometry of polysialic acid and NPr polysialic acid expression on RMA-S cells incubated with ManNPr; format: cell-based, mouse
# Method: as §1
# Preparation of vaccines. RMA-S cells derived from leukemic cell line RMA, are defective in transportation-associated proteins (12). However, RMA-S cells like those of the original RMA cells (9), can still incorporate ManNPr into their surface polysialic acid as shown by flow cytometric analysis. FIG. […] Following harvesting of the cells the expression of polysialic acid and its NPr analog were measured by flow cytometry using MAb 735 and MAb 13D9 respectively.
# Heat-killed RMA-S cells pretreated with 1 mg/ml ManNPr for 48 h, were then used as the autologous vaccine.
Compound,sera binding to polysialic acid (polysialic acid),Percentage of spleen metastasis (RMA-S tumor; Table 3 experiment) [%],"Metastasis of Spleen, Percentage (RMA-S tumor; day 35, summary of two experiments)","metastasis score of spleen of individual mouse (row head: Treatment) (RMA-S tumor; one cell per mouse, spleen cells cultured over 20 days)",binding of MAb 735 (polysialic acid) to the cell surface (P815 cells),shift of fluorescence on staining with MAb 13D9 (NPr polysialic acid) (P815 cells; different time periods),conversion of surface polysialic acid to NPr polysialic acid (staining with MAb 13D9) (RMA-S cells; ManNPr at different concentrations),binding of MAb 735 (polysialic acid) to the cell surface (RMA-S cells; increasing amounts of ManNPr)
"O=P1(N(CCCl)CCCl)NCCCO1 (centres unmarked) [CY, cyclophosphamide]",no binding,75,(78%),+ (3×) and −,–,–,–,–
"CCC(=O)N[C@@H]1C(O)O[C@H](CO)[C@@H](O)[C@@H]1O (some centres unmarked) [ManNPr, N-propionylmannosamine]",–,–,–,–,slight increase in the binding of MAb 735,large shift of fluorescence,significantly converted to NPr polysialic acid,binding to the cell surface became weaker
